Earlier results, collected in PMC3241508 (Bioconjugate chemistry, 2011).

oral absorption into the blood stream (later study): good oral absorption
oral absorption (oral): poorly absorbed orally
Substance: dextran sulfate
